Measurements published in patent US12662491B2 (Redona Therapeutics, Inc., priority 2020, dated 2026).

These molecules were tested against T1, Zcchc11 enzyme (Homo sapiens, UniProt Q5TAX3) (assay: TUTase assay (Zcchc11 assay, Lin28a-dependent polyuridylation of pre-let-7)). Details: Lin28a-dependent Zcchc11 (Z11) TUTase activity; read-out: Potency Lin28a-dep Z11 IC50.
T1 construct: made in house; host or cells: HEK293 cells (Zcchc11); E. coli Rosetta II (LIN28A)
T1 sequence (Q5TAX3 212-1420): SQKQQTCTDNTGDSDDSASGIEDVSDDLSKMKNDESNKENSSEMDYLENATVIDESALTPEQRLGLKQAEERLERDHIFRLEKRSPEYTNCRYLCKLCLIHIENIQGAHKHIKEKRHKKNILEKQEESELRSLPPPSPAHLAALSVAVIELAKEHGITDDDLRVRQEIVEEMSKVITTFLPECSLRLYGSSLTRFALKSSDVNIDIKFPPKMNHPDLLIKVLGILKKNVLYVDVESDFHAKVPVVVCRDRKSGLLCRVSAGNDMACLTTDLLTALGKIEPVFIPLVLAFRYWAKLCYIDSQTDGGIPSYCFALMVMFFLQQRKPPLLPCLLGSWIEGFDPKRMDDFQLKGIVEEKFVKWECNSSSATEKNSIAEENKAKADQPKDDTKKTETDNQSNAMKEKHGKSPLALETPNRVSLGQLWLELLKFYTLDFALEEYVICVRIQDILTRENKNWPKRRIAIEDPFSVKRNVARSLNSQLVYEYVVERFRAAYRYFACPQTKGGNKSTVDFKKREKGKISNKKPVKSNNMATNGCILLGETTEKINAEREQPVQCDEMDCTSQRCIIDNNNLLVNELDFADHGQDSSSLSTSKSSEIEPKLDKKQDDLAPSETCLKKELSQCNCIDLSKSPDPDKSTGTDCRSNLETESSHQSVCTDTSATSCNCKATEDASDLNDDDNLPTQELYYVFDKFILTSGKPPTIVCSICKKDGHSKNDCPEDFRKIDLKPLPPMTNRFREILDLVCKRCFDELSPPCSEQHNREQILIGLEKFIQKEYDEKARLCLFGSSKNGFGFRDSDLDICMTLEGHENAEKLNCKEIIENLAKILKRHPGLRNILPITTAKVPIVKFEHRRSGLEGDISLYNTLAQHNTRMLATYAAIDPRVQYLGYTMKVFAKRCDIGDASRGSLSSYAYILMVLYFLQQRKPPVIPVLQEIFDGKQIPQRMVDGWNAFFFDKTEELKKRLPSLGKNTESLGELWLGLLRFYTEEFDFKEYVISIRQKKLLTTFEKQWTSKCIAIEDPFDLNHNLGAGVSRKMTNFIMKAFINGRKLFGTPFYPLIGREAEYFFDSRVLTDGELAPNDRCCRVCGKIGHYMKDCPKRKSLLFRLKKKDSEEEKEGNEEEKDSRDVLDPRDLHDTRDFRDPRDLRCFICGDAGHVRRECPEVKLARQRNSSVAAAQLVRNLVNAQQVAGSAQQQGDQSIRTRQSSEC
Assay type: biochemical
In short: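 Readout: time-dependent quench of 5′-fluorescein pre-let-7 (2 nM) as 3′-rhodamine A20 probe anneals to poly(U) tails. Enzyme 0.2 nM Zcchc11 (res. 212-1420), LIN28A 10 nM, UTP 5 uM; pH 7.3 HEPES, 150 mM KCl, 5 mM MgCl2, RT. 4-parameter IC50; 100% = DMSO, 0% = no UTP.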

IC50, ≤ 1000 nM:
CN(C)C1CN(c2ccc(-n3cc(C(=O)O)c(=O)c4cc(F)c(N5C6CC6C[C@@H]5COc5nc6c(ccn6C)cc5Cl)cc43)cn2)C1 (stereo partly drawn) [Compound 334, 7-[(3R)-3-[({5-chloro-1-methylpyrrolo [2,3-b]pyridin-6-yl}oxy)methyl]-2-azabicyclo [3.1.0]hexan-2-yl]-1-{6-[3-(dimethyl-amino)azetidin-1-yl]pyridin-3-yl}-6-fluoro-4-oxoquinoline-3-carboxylic acid]
CN(C)c1ccc(Cl)c(OC[C@H]2C[C@@H]3C[C@@H]3N2c2cc3c(cc2F)c(=O)c(C(=O)O)cn3-c2ccc(N3CC(N(C)C)C3)nc2)n1 [Compound 335, 7-[(1S,3R,5S)-3-({[3-Chloro-6-(dimethyl-amino)pyridin-2-yl]oxy}methyl)-2-azabicyclo [3.1.0]hexan-2-yl]-1-{6-[3-(dimethyl-amino)azetidin-1-yl]pyridin-3-yl}-6-fluoro-4-oxoquinoline-3-carboxylic acid]
CN(C)C1CN(c2ccc(-n3cc(C(=O)O)c(=O)c4cc(Cl)c(N5C6CC6C[C@@H]5COc5nc(N)ccc5Cl)cc43)cn2)C1 (stereo partly drawn) [Compound 336, 7-[(3R)-3-{[(6-Amino-3-chloropyridin-2-yl)oxy]methyl}-2-azabicyclo [3.1.0]hexan-2-yl]-6-chloro-1-{6-[3-(dimethyl-amino)azetidin-1-yl]pyridin-3-yl}-4-oxoquinoline-3-carboxylic acid]
CN(C)C1CN(c2ccc(-n3cc(C(=O)O)c(=O)c4cc(F)c(N5[C@@H](COc6nc7c(ccn7C)cc6Cl)C[C@H]6C[C@H]65)cc43)cn2)C1 [Compound 337, 7-[(1R,3R,5R)-3-[{{5-Chloro-1-methyl-pyrrolo[2,3-b]pyridin-6-yl}oxy)methyl]-2-azabicyclo [3.1.0]hexan-2-yl]-1-{6-[3-(dimethyl-amino)azetidin-1-yl]pyridin-3-yl}-6-fluoro-4-oxoquinoline-3-carboxylic acid]
CN(C)c1ccc(Cl)c(OC[C@H]2C[C@H]3C[C@H]3N2c2cc3c(cc2F)c(=O)c(C(=O)O)cn3-c2ccc(N3CC(N(C)C)C3)nc2)n1 [Compound 338, 7-[(1R,3R,5R)-3-({[3-chloro-6-(dimethyl-amino)pyridin-2-yl]oxy}methyl)-2-azabicyclo [3.1.0]hexan-2-yl]-1-{6-[3-(dimethyl-amino)azetidin-1-yl]pyridin-3-yl}-6-fluoro-4-oxoquinoline-3-carboxylic acid]
CN(C)C1CN(c2ccc(-n3cc(C(=O)O)c(=O)c4cc(Cl)c(N5[C@@H](COc6nc(N)ccc6Cl)C[C@H]6C[C@H]65)cc43)cn2)C1 [Compound 339, 7-[(3R)-3-{[(6 Amino-3-chloropyridin-2-yl)oxy]methyl}-2-azabicyclo [3.1.0]hexan-2-yl]-6-chloro-1-{6-[3-(dimethyl-amino)azetidin-1-yl]pyridin-3-yl}-4-oxoquinoline-3-carboxylic acid]
COc1ccc(Cl)c(OC[C@H]2C[C@H]3C[C@H]3N2c2cc3c(cc2F)c(=O)c(C(=O)O)cn3-c2ccc(N(C)C)nc2)n1 [Compound 340, 7-[(1R,3R,5R)-3-{[(3-Chloro-6-methoxy-pyridin-2-yl)oxy]methyl}-2-azabicyclo [3.1.0]hexan-2-yl]-1-[6-(dimethyl-amino)pyridin-3-yl]-6-fluoro-4-oxoquinoline-3-carboxylic acid]
COc1ccc(Cl)c(OC[C@H]2C[C@H]3C[C@H]3N2c2cc3c(cc2Cl)c(=O)c(C(=O)O)cn3-c2ccc(N(C)C)nc2)n1 [Compound 341, 6-Chloro-7-[(1R,3R,5R)-3-{[(3-chloro-6-methoxy-pyridin-2 yl)oxy]methyl}-2-azabicyclo [3.1.0]hexan-2-yl]-1-[6-(dimethyl-amino)pyridin-3-yl]-4-oxoquinoline-3-carboxylic acid]
